Measurements: US5747530A, “Aromatic dibenzofuran compounds and pharmaceutical/cosmetic compositions comprised thereof” (Centre International de Recherches Dermatologiques Galderma, priority 1994, dated 1998)

Experiments:
RAR β = target: T1, RAR β (Homo sapiens, UniProt P10826); test: Affinity for RAR β receptor (Kd); assay type: binding; details: read-out: Affinities for receptors Kd, RAR β
T1 sequence (P10826 1-448 isoform P10826-2): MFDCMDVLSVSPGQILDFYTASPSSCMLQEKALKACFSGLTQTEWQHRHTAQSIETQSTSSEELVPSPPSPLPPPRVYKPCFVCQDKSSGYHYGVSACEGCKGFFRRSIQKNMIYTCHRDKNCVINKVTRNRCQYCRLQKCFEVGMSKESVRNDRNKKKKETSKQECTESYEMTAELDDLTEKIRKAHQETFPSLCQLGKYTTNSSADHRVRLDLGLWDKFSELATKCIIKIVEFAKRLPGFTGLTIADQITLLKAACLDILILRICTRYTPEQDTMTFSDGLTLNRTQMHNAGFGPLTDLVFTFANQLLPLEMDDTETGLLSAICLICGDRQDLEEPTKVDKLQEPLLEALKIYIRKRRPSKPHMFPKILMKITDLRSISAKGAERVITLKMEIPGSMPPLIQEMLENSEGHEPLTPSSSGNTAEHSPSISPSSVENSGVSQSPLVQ
Procedure: (§1) Biological activities of certain compounds described and exemplified above:
(§2) ^(a) The affinites for the RARs were determined under the conditions
(§3) described in B. Martin et al, "Selective Synthetic Ligands for Human
(§4) Nuclear Retinoic Acid Receptors," Skin Pharmacol., 5, 57-65 (1992).

RAR γ = target: T2, RAR γ (Homo sapiens, UniProt P13631); test: Affinity for RAR γ receptor (Kd); assay type: binding; details: read-out: Affinities for receptors Kd, RAR γ
T2 sequence (P13631 1-454): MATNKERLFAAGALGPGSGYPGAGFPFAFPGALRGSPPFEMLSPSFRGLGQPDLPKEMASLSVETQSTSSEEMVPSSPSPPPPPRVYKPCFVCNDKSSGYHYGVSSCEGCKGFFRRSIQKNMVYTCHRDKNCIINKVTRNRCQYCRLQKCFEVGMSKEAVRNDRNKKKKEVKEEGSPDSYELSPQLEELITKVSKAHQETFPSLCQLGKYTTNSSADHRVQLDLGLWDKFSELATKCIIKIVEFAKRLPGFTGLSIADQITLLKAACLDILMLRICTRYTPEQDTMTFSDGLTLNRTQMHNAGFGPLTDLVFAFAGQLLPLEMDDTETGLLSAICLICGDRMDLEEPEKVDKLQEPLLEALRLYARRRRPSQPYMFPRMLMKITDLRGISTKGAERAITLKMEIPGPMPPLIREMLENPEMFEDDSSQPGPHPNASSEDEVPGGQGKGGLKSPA
Procedure: as §1, §2, §3, §4

RAR α = target: T3, RAR α (Homo sapiens, UniProt P10276); test: Affinity for RAR α receptor (Kd); assay type: binding; details: read-out: Affinities for receptors Kd, RAR α
T3 sequence (P10276 1-462): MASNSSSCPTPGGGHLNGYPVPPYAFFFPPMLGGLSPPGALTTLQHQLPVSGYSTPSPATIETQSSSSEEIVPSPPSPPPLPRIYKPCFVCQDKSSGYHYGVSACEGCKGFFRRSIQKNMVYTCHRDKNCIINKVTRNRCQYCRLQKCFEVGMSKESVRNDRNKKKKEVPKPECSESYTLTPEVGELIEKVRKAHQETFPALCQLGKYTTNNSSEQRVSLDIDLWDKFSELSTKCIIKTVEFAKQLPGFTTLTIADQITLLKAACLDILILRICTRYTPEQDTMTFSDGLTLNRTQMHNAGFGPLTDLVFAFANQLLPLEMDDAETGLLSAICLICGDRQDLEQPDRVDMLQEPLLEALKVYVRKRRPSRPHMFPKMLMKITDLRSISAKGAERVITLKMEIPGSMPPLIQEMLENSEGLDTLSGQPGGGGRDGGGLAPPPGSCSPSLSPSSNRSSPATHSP
Procedure: as §1, §2, §3, §4

F9 cells [1] = test: Antagonist activity with respect to the differentiation of F9 cells; assay type: cell-based; details: Mus musculus; coincubation with reference agonist (F9 AC50 = 4nM)
Procedure: Their activities may also be measured in tests of cellular transactivation using previously transfected recombinant RAR or RXR receptors (B. A. Bernard et al, Biochemical and Biophysical Research Communications, vol. 186, pp. 977-983 (1992)); M. F. Boehm et al, Journal of Medicinal Chemistry, p37, pp. 408-414 (1994)).
^(b) The antagonist activity was determined by coincubating a
[N(4-carboxybenzyl)-5,6,7,8-tetrahydro-5,5,8,8-tetramethyl-2-naphthylamin
(F9 AC50 = 4nM)] and different concentrations of the test retinoid.
These experiments were carried out under conditions for the determination
of activity with respect to the differentiation of F9 cells according to
the technique described in M. Darmon, M. Rocher, M. T. Cavey, B. Martin,
T. Rabilloud, C. Delescluse and B. Shroot, "Biological activity of
retinoids correlates with affinity for nuclear receptors, but not for
cytosolic binding protein," Skin Pharmacol., 1, 161-175 (1988).

F9 cells [2] = test: Agonist activity, differentiation of F9 cells; assay type: cell-based; details: Mus musculus, reference agonist

Row | Structure (SMILES) | Kd (RAR β) [nM] | Kd (RAR γ) [nM] | Kd (RAR α) [nM] | IC50 (F9 cells [1]) [nM] | AC50 (F9 cells [2]) [nM]
1 | CC12CCC(C1)C1(C)Oc3ccc(C(=O)COc4ccc(C(=O)O)cc4)cc3C21C (stereo not drawn) [Example 12, 4-[2-(1,2,3,4-tetrahydro-1,4a,9b-trimethyl-1,4-methanodibenzofuran-8-yl)-2-oxoethoxy]benzoic acid] | 745 | 481 | 3200 | 40 | –
2 | CC12CCC(C1)C1(C)Oc3ccc(CCOc4ccc(C(=O)O)c(O)c4)cc3C21C (stereo not drawn) [Example 17, 4-[2-(1,2,3,4-tetrahydro-1,4a,9b-trimethyl-1,4-methanodibenzofuran-8-yl)ethoxy]-2-hydroxybenzoic acid] | 315 | 2250 | > 10000 | 270 | –
3 | CC1(C)CCC(C)(C)c2cc(NCc3ccc(C(=O)O)cc3)ccc21 [N(4-carboxybenzyl)-5,6,7,8-tetrahydro-5,5,8,8-tetramethyl-2-naphthylamin] | – | – | – | – | 4

More lines, in order of falling Kd (RAR β), values ahead:

Row | Kd (RAR β) [nM] | Kd (RAR γ) [nM] | Kd (RAR α) [nM] | IC50 (F9 cells [1]) [nM] | Structure (SMILES) | AC50 (F9 cells [2]) [nM]
4 | 230 | 40 | > 3200 | 36 | CC12CCC(C1)C1(C)Oc3ccc(C(O)COc4ccc(C(=O)O)cc4)cc3C21C (stereo not drawn) [Example 13, 4-[2-(1,2,3,4-tetrahydro-1,4a,9b-trimethyl-1,4-methanodibenzofuran-8-yl)-2-hydroxyethoxy]benzoic acid] | –
5 | 114 | 150 | 2500 | 55 | CC12CCC(C1)C1(C)Oc3ccc(C(=O)COc4ccc(C(=O)O)c(O)c4)cc3C21C (stereo not drawn) [Example 15, 4-[2-(1,2,3,4-tetrahydro-1,4a,9b-trimethyl-1,4-methanodibenzofuran-8-yl)-2-oxoethoxy]-2-hydroxybenzoic acid] | –
6 | 53 | 27 | 220 | 19 | CC12CCC(C1)C1(C)Oc3ccc(C(=O)/C=C/c4ccc(C(=O)O)cc4)cc3C21C (single isomer, unassigned) [Example 23, 4-[(E)-3-(1,2,3,4-Tetrahydro-1,4a,9b-trimethyl-1,4-methanodibenzofuran-8-yl)-3-oxo-1-propenyl]benzoic acid] | –
